Laboratory results published in PMC10882974 (Environmental Science & Technology, 2024).
“Also recorded” adds a separate entry of the source. Structures can show the parent of a compound that is named as a salt.

Key:
C. elegans [1] = assay: norfluoxetine uptake and coexposure with fluoxetine (SI A5); format: in vivo, Caenorhabditis elegans; conditions: fluoxetine 5 and 20 mg/L with norfluoxetine 20 mg/L
Method: Alternatively, there could be a concentration-dependent increase in metabolism over time resulting from enzyme induction. This was modeled with an extra metabolism rate constant ke that was included after 10 h (eq 1a and Figure 4C,D).

C. elegans [2] = assay: toxicokinetics experiment III: effect of E. coli on uptake; format: in vivo, Caenorhabditis elegans; conditions: for BCF FLX (kinetic bioconcentration factor) / kt transformation rate constant of fluoxetine to norfluoxetine: exp III, 10 h
Method: (§1) In between cycles, the samples were kept on ice. […] Samples were stored at −20 °C until further analysis.
(§2) All parameters and units are summarized in SI A3.

[3] = as above; format: in vivo, Caenorhabditis elegans; conditions: 10 mg/L, k2f elimination rate constant of fluoxetine (k2FLX,sum), exp III, 10 h
Method: as §1, §2

cyp35-a2 = cyp35-a2 gene expression (qRT-PCR); format: in vivo, Caenorhabditis elegans
Method: 1500 worms were collected in eppendorf tubes with 300 μL of RLT lysis buffer (Qiagen, Hilden, Germany) and homogenized using a Minilys homogenizer (Bertin Technologies) at middle speed four times for 20 s and kept on ice in between. Total RNA was isolated with the QIAshredder and RNeasy mini kits (Qiagen) according to the manufacturer’s protocol. The QuantiTect reverse transcription kit (Qiagen) was used for cDNA generation. RT-qPCR was performed on a Biorad CFX Opus 384 System using an iQ SYBR Green Supermix (Biorad) for amplification. The gene of interest was cyp35-a2, and cdc-42 was used as a housekeeping gene. Primers were generated by Biolegio (Nijmegen, The Netherlands); further details on the RT-qPCR and primers can be found in SI A7. Three biological replicates were used for each treatment.

C. elegans [4] = assay: toxicokinetics experiment II: short-term uptake of different concentrations; format: in vivo, Caenorhabditis elegans; conditions: for BCF FLX (kinetic bioconcentration factor) / k1 uptake rate constant: exp II, no E. coli, 2 h
Method: as §1, §2

[5] = as above; format: in vivo, Caenorhabditis elegans; conditions: k2f elimination rate constant of fluoxetine (k2FLX,sum), exp II, no E. coli, 2 h
Method: as §1, §2

[6] = tested on: Gammarus pulex, Nile tilapia, and Japanese Medaka; conditions: cited from earlier work
[7] = stability of fluoxetine in S medium; conditions: 10 mg/L, 20 °C, 0.5-24 h
Method: After 0.5, 1, 2, 5, 10, and 24 h at 20 °C, samples of spiked medium were stored at −80 °C until analysis. […] Therefore, two replicates of the samples were washed three times with M9 buffer, while the other two were just centrifuged once, and the entire supernatant was removed.
E. coli containing pellets were resuspended in 250 μL of methanol and frozen in liquid nitrogen and then left at room temperature to thaw, followed by 5 min of sonication in a sonication bath. The freeze–thawing and sonication were repeated twice more and after this, samples were centrifuged at 15,000g for 15 min. The supernatant was stored at −20 °C until analysis.
Separation was performed on a UHPLC system (Shimadzu) with a Kinetex 1.7 μm C18 100 A LC column (150 mm × 2.1 mm, Phenomenex).

[8] = tested on: marine mussels, freshwater mussels, Daphnia magna; conditions: cited from earlier work
C. elegans [9] = assay: toxicokinetics experiment IV: long-term exposure of L4 and adult worms
Method: (§3) Three replicates of 1500 pooled C. elegans were used for each time point for each concentration. For experiments with E. coli, the OD600 was kept constant at 0.4.
(§4) C. elegans containing pellets were resuspended in 500 μL of methanol, and 0.6 g of […] ceramic beads (1.4 mm) were added to the vial. The samples were homogenized three times for 20 s using a Minilys homogenizer (Bertin Technologies) at middle speed. In between cycles, the samples were kept on ice. […] The supernatant was transferred to a glass tube, the pellet (including the ceramic beads) was resuspended in 500 μL of methanol, and the homogenization, sonication, and centrifugation cycle was repeated twice more to result in a three-step extraction. The total combined supernatant was concentrated to dryness under a gentle nitrogen stream and redissolved in 500 μL of methanol to a final concentration of the IS of 1 μM. Samples were stored at −20 °C until further analysis.
(§5) A one-compartment model was selected since chemical concentrations could only be measured for the whole organism. […] All parameters and units are summarized in SI A3.
(§6) The kinetic bioconcentration factor[33] was calculated with eq 3, and the ke and kt were only included when applicable to the respective experiment [drawing 4] 3
(§7) Model fitting was performed by adding the ordinary differential equations to the BYOM modeling package version 6.3 (http://www.debtox.info/byom.html) in Matlab R2022b.[34] […] Optimization was performed with the Melder–Mead Simplex Search method, minimizing the minus log-likelihood. […] Model script deviations from the BYOM model can be found in SI A9.

[10] = as above; conditions: whole organism (worm homogenate), iv, exp IV, with E. coli, 48 h
Method: as §3, §4, §5, §6, §7

C. elegans [11] = assay: toxicokinetics experiment I: elimination after 1 h exposure; format: in vivo, Caenorhabditis elegans; conditions: after 1 h exposure; no E. coli
Method: as §1, §2

[12] = as above; format: in vivo, Caenorhabditis elegans; conditions: whole organism (worm homogenate)
Method: as §1, §2

[13] = with E. coli, 10 mg/L, k1, k2FLX, k2NF, kt constrained (eq 1b)
[14] = with E. coli, 10 mg/L, no constraint
[15] = combined experiments II, III, IV
[16] = exp IV, with E. coli, 0.5 mg/L, 48 h
[17] = exp IV, with E. coli, 20 mg/L, 48 h

Q: With `CNCCC(Oc1ccc(C(F)(F)F)cc1)c1ccccc1` (centres unmarked) [fluoxetine, Fluoxetine hydrochloride] as the molecule, how does the “effect of coexposure with norfluoxetine on internal fluoxetine concentrations” value (C. elegans [1]) read?
A: no significant differences; also recorded: tested, but no effect

Q: And the “time to reach peak internal fluoxetine concentrations” value (C. elegans [2]; Figure 4)?
A: 2 to 5 h

Q: And the “effect of presence of bacteria on k2FLX,sum” value (C. elegans [2]; Figure 5)?
A: decreased to around half

Q: And the “BCF FLX (kinetic bioconcentration factor)” value (shortened to “BCF FLX”) (C. elegans [2]; no E. coli, 10 mg/L)?
A: 8.19

Q: What about the “kt transformation rate constant of fluoxetine to norfluoxetine” value (“kt transformation rate constant” for short) (C. elegans [2]; no E. coli, 10 mg/L) of the same molecule?
A: 0.05 h⁻¹

Q: And the “BCF FLX” value (C. elegans [2]; [13])?
A: 8.19

Q: And the “kt transformation rate constant” value (C. elegans [2]; [13])?
A: 0.05 h⁻¹

Q: What about the “BCF FLX” value (C. elegans [2]; [14]) of the same molecule?
A: 20.67

Q: What about the “kt transformation rate constant” value (C. elegans [2]; [14]) of the same molecule?
A: 0.065 h⁻¹

Q: And the “effect of presence of bacteria on internal concentration of fluoxetine” value (C. elegans [2]; experiment III, 10 mg/L)?
A: almost doubled

Q: And the “BCF versus presence of E. coli” value (C. elegans [2]; in vivo)?
A: BCF: positively correlated

Q: What about the “k2 versus presence of E. coli” value (C. elegans [2]; in vivo) of the same molecule?
A: k2: negatively correlated

Q: And the k el ([3]; whole organism (homogenate of pooled worms), no E. coli)?
A: 0.000461 s⁻¹

Q: What about the k el ([3]; whole organism (worm homogenate), with E. coli, k1, k2FLX, k2NF, kt constrained (eq 1b)) of the same molecule?
A: 0.000461 s⁻¹

Q: And the k el ([3]; whole organism (worm homogenate), with E. coli, no constraint)?
A: 0.000111 s⁻¹

Q: What about the “increase in CYP gene expression (cyp35-a2) over time” value (cyp35-a2; 0.5 mg/L fluoxetine) of the same molecule?
A: not observed

Q: What about the “CYP gene expression (cyp35-a2) over time” value (cyp35-a2; 20 mg/L fluoxetine, observed for 24 h, not yet for 10 h) of the same molecule?
A: increase in CYP gene expression over time

Q: What about the “BCF versus exposure concentration” value (C. elegans [4]; [15]) of the same molecule?
A: BCF: negatively correlated

Q: What about the “k1 versus exposure concentration” value (C. elegans [4]; [15]) of the same molecule?
A: k1: negatively correlated

Q: And the “BCF FLX” value (C. elegans [4]; 0.5 mg/L, k2FLX constrained)?
A: 15.85

Q: And the “k1 uptake rate constant” value (C. elegans [4]; 0.5 mg/L, k2FLX constrained)?
A: 22.5 L/(kgnem h)

Q: And the “BCF FLX” value (C. elegans [4]; 0.5 mg/L, no constraint)?
A: 13.06

Q: What about the “k1 uptake rate constant” value (C. elegans [4]; 0.5 mg/L, no constraint) of the same molecule?
A: 46.1 L/(kgnem h)

Q: And the “BCF FLX” value (C. elegans [4]; 5 mg/L, k2FLX constrained)?
A: 7.18

Q: What about the “k1 uptake rate constant” value (C. elegans [4]; 5 mg/L, k2FLX constrained) of the same molecule?
A: 10.2 L/(kgnem h)

Q: What about the “BCF FLX” value (C. elegans [4]; 5 mg/L, no constraint) of the same molecule?
A: 7.66

Q: What about the “k1 uptake rate constant” value (C. elegans [4]; 5 mg/L, no constraint) of the same molecule?
A: 9.19 L/(kgnem h)

Q: And the “BCF FLX” value (C. elegans [4]; 20 mg/L, k2FLX constrained)?
A: 3.20

Q: And the “k1 uptake rate constant” value (C. elegans [4]; 20 mg/L, k2FLX constrained)?
A: 4.54 L/(kgnem h)

Q: And the “BCF FLX” value (C. elegans [4]; 20 mg/L, no constraint)?
A: 2.71

Q: What about the “k1 uptake rate constant” value (C. elegans [4]; 20 mg/L, no constraint) of the same molecule?
A: 7.58 L/(kgnem h)

Q: And the k el ([5]; whole organism (homogenate of pooled worms), 5 mg/L, k2FLX constrained (value of experiment I))?
A: 0.000394 s⁻¹

Q: And the k el ([5]; whole organism (homogenate of pooled worms), 5 mg/L, no constraint)?
A: 0.000333 s⁻¹

Q: And the k el ([5]; whole organism (homogenate of pooled worms), 20 mg/L, k2FLX constrained (value of experiment I))?
A: 0.000394 s⁻¹

Q: What about the k el ([5]; whole organism (homogenate of pooled worms), 20 mg/L, no constraint) of the same molecule?
A: 0.000778 s⁻¹

Q: What about the k el ([5]; whole organism (worm homogenate), 0.5 mg/L, k2FLX constrained (value of experiment I)) of the same molecule?
A: 0.000394 s⁻¹

Q: And the k el ([5]; whole organism (worm homogenate), 0.5 mg/L, no constraint)?
A: 0.000981 s⁻¹

Q: What about the k2 elimination rate [6] of the same molecule?
A: 0.0008 to 0.08 h⁻¹

Q: What about the “concentration of fluoxetine in S medium without C. elegans over time” value [7] of the same molecule?
A: constant over time

Q: What about the “BCF values in other species” value [8] of the same molecule?
A: 100 to 10,000

Q: What about the “steady-state concentrations, L4 versus adult C. elegans (life stage)” value (C. elegans [9]; 0.5 and 20 mg/L, 48 h) of the same molecule?
A: did not show significant differences; also recorded: tested, but no effect (L4 vs adult)

Q: And the “IR (ingestion rate) versus (toxic) effect on feeding” value (C. elegans [9]; E. coli related, modeled with eq 1b)?
A: IR (ingestion rate): negatively correlated–neurotoxic effect

Q: And the “k2 versus CYP P450 induction (linked to exposure time)” value (C. elegans [9]; adding extra ke parameter over time)?
A: k2: positively correlated (adding extra ke parameter over time)

Q: What about the “BCF FLX” value (C. elegans [9]; [16]) of the same molecule?
A: 24.66

Q: What about the “k1 uptake rate constant” value (C. elegans [9]; [16]) of the same molecule?
A: 31.1 L/(kgnem h)

Q: What about the “BCF FLX” value (C. elegans [9]; [17]) of the same molecule?
A: 6.36

Q: What about the “k1 uptake rate constant” value (C. elegans [9]; [17]) of the same molecule?
A: 9.01 L/(kgnem h)

Q: What about the “kt transformation rate constant” value (C. elegans [9]; [17]) of the same molecule?
A: 0.056 h⁻¹

Q: And the k el ([10]; 0.5 mg/L, k2f elimination rate constant of fluoxetine (k2FLX,sum))?
A: 0.000336 s⁻¹

Q: What about the k el ([10]; 0.5 mg/L, ke extra metabolism rate constant after 10 h, 0.5 mg/L) of the same molecule?
A: 1.42e-05 s⁻¹

Q: And the k el ([10]; 20 mg/L, k2f elimination rate constant of fluoxetine (k2FLX,sum))?
A: 0.000233 s⁻¹

Q: And the k el ([10]; 20 mg/L, ke extra metabolism rate constant after 10 h, 20 mg/L)?
A: 0.000144 s⁻¹

Q: What about the “elimination over time after transfer to clean medium” value (C. elegans [11]) of the same molecule?
A: almost all fluoxetine was eliminated after 6 h

Q: And the k el ([12]; 1 h exposure (fluoxetine 0.5, 5, 20 mg/L; norfluoxetine 20 mg/L), then clean medium, no E. coli, read-out: k2sum elimination rate constant (+95% CI) (converted))?
A: 0.000394 s⁻¹

Q: And the k el ([12]; 1 h exposure, then clean medium, slow phase after 1 h, no E. coli, read-out: k2slow elimination rate constant (+95% CI) (converted))?
A: 0.000131 s⁻¹

Q: And the k el ([12]; calculated from k2sum and k2slow, read-out: k2fast elimination rate constant (converted))?
A: 0.000264 s⁻¹
